Experiment [1] concerns the target MCL-1/Bim interaction (recombinant human MCL-1 protein, residues 171-327; biotinylated human Bim peptide, residues 51-76) (Homo sapiens (Human), UniProt Q07820). Briefly: MCL-1/Bim Binding AlphaLISA Assay. To be noted: 0.0625 nM 6xHis-Mcl-1 (171-327), 0.0625 nM biotinylated-Bim peptide. The method in brief:
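AlphaLISA with 0.0625 nM His-tagged MCL-1 and 0.0625 nM biotin-Bim peptide in 20 mM Hepes pH 7.5, 150 mM NaCl, 0.002% Brij 35, 1 mM DTT, 0.01% BSA. Compound preincubated 1 h with MCL-1, Bim added for 2 h, then acceptor and donor beads 1 h each.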

The next experiment relates to SKBR3 cells. Put plainly: SKBR3 Cell Viability Assay (CellTiter Glo). Type of experiment: cell-based. The following applies: CellTiter Glo luminescence, read-out: MCL-1 CV SKBR3 EC50. The method in brief: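 SKBR3 cells (6,000/well) in McCoy 5A + 10% FBS exposed to serially diluted compound for 72 h at 37° C., 5% CO2. Viability by CellTiter Glo luminescence; % inhibition normalized to DMSO (negative) and 10 μM puromycin (positive).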
A general note: In ATP-based viability assays light output follows the ATP content of the culture.

Structures are written as SMILES. Like-named read-outs stand apart in the source and are kept apart here.

Chain of MCL-1/Bim interaction (recombinant human MCL-1 protein, residues 171-327; biotinylated human Bim peptide, residues 51-76) (Q07820 171-327): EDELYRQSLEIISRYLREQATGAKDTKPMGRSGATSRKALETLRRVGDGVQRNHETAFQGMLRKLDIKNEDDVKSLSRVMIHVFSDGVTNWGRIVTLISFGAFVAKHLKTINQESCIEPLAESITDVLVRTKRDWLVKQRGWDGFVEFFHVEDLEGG

With `CO[C@H]1/C=C/C[C@H](C)C[S@@](=O)(NC(=O)N2CC(OC(=O)N(C)C)C2)=NC(=O)c2ccc3c(c2)N(C[C@@H]2CC[C@H]21)C[C@@]1(CCCc2cc(Cl)ccc21)CO3` [Example 292], in experiment [1], the IC50 (commonly the midpoint of a concentration-inhibition curve) amounted to 0.02 nM. For the same compound, the EC50 – broadly, the concentration at which the effect is half-maximal – in the experiment with SKBR3 cells (Homo sapiens, SK-BR-3, 72 h) was 45.1 nM.
As for `COc1nn(C)cc1C(=O)N[S@@]1(=O)=NC(=O)c2ccc3c(c2)N(C[C@@H]2CC[C@H]2[C@@H](OC(=O)CN(C)C(=O)CNC(C)(C)C)/C=C/C[C@H](C)[C@H]1C)C[C@@]1(CCCc2cc(Cl)ccc21)CO3` [Example 293], in experiment [1], the IC50 is 0.058 nM. The EC50 with SKBR3 cells (Homo sapiens, SK-BR-3, 72 h) is 69.2 nM.
`CNC1CN(C(=O)N[S@@]2(=O)=NC(=O)c3ccc4c(c3)N(C[C@@H]3CC[C@H]3[C@@H](OC)/C=C/C[C@H](C)C2)C[C@@]2(CCCc3cc(Cl)ccc32)CO4)C1` [Example 294]: the IC50 in experiment [1] was found to be 0.129 nM. In addition, the EC50 in the experiment with SKBR3 cells (Homo sapiens, SK-BR-3, 72 h) was 260 nM.
For `COc1nn(C)cc1C(=O)N[S@@]1(=O)=NC(=O)c2ccc3c(c2)N(C[C@@H]2CC[C@H]2[C@@H](OC)/C=C/[C@H](OCCN2CCOCC2)[C@H](C)C1)C[C@@]1(CCCc2cc(Cl)ccc21)CO3` [Example 295], in that order: 0.04 nM and 22 nM.
For `CCO[C@H]1/C=C/[C@H](OC)[C@@H]2CC[C@H]2CN2C[C@@]3(CCCc4cc(Cl)ccc43)COc3ccc(cc32)C(=O)N=[S@](=O)(NC(=O)c2cn(C)nc2OC)C[C@H]1C` [Example 296], in that order: 0.053 nM and 64.1 nM.
Regarding `CO[C@H]1/C=C/C[C@H](C)C[S@@](=O)(NC(=O)N2CC(N3CCN4CCOC[C@@H]4C3)C2)=NC(=O)c2ccc3c(c2)N(C[C@@H]2CC[C@H]21)C[C@@]1(CCCc2cc(Cl)ccc21)CO3` [Example 297], in experiment [1], the IC50 turned out to be 0.033 nM. Besides, the EC50 in the experiment on SKBR3 cells (Homo sapiens, SK-BR-3, 72 hours) was 69 nM.
`COc1nn(C)cc1C(=O)N[S@@]1(=O)=NC(=O)c2ccc3c(c2)N(C[C@@H]2CC[C@H]2[C@@H](OC)CC[C@H](O)[C@H](C)C1)C[C@@]1(CCCc2cc(Cl)ccc21)CO3` [Example 298]: the IC50 in experiment [1] is 0.016 nM. The concentration for a half-maximal effect (EC50) in the experiment on SKBR3 cells (Homo sapiens, SK-BR-3, 72 h) was found to be 71.9 nM.
The like results for `COc1nn(C)cc1C(=O)N[S@@]1(=O)=NC(=O)c2ccc3c(c2)N(C[C@@H]2CC[C@H]2[C@@H](OC)CC[C@H](OC)[C@H](C)C1)C[C@@]1(CCCc2cc(Cl)ccc21)CO3` [Example 299] were, in that order, 0.039 nM and 59.7 nM.
`COc1nn(C)cc1C(=O)N[S@@]1(=O)=NC(=O)c2ccc3c(c2)N(C[C@@H]2CC[C@H]2[C@@H](OC(=O)CCN2CCOCC2)/C=C/C[C@H](C)C1)C[C@@]1(CCCc2cc(Cl)ccc21)CO3` [Example 300]: the IC50 in experiment [1] was determined as 0.026 nM. For the same compound, in the experiment on SKBR3 cells (Homo sapiens, SK-BR-3, 72 h), the EC50 came to 26.8 nM.
The like results for `COc1nn(C)cc1C(=O)N[S@@]1(=O)=NC(=O)c2ccc3c(c2)N(C[C@@H]2CC[C@H]2[C@@H](OC(=O)CN(C)C)/C=C/C[C@H](C)C1)C[C@@]1(CCCc2cc(Cl)ccc21)CO3` [Example 301] were, in that order, 0.04 nM and 41.9 nM.
The like results for `COC1CCn2cc(C(=O)N[S@@]3(=O)=NC(=O)c4ccc5c(c4)N(C[C@@H]4CC[C@H]4[C@@H](OC)/C=C/C[C@H](C)C3)C[C@@]3(CCCc4cc(Cl)ccc43)CO5)nc2C1` (stereo partly shown) [Example 302] were, in that order, 0.091 nM and 302 nM.
For `COC[C@H]1C[C@@H]1NC(=O)N[S@@]1(=O)=NC(=O)c2ccc3c(c2)N(C[C@@H]2CC[C@H]2[C@@H](OC)/C=C/C[C@H](C)C1)C[C@@]1(CCCc2cc(Cl)ccc21)CO3` [Example 303], in that order: 0.045 nM and 22.8 nM.
Consider `COCc1cc(C(=O)N[S@@]2(=O)=NC(=O)c3ccc4c(c3)N(C[C@@H]3CC[C@H]3[C@@H](OC)/C=C/C[C@H](C)C2)C[C@@]2(CCCc3cc(Cl)ccc32)CO4)cn1C` [Example 304], for which, in experiment [1], the IC50 is 0.129 nM. Moreover, the EC50 in the experiment with SKBR3 cells (Homo sapiens, SK-BR-3, 72 h) stood at 21.3 nM.
The like results for `COC(=O)[C@]1(C)C[C@H](NC(=O)N[S@@]2(=O)=NC(=O)c3ccc4c(c3)N(C[C@@H]3CC[C@H]3[C@@H](OC)/C=C/C[C@H](C)C2)C[C@@]2(CCCc3cc(Cl)ccc32)CO4)C1` [Example 305] were, in that order, 0.088 nM and 140 nM.
For `COC[C@@H]1Cn2cc(C(=O)N[S@@]3(=O)=NC(=O)c4ccc5c(c4)N(C[C@@H]4CC[C@H]4[C@@H](OC)/C=C/C[C@H](C)C3)C[C@@]3(CCCc4cc(Cl)ccc43)CO5)cc2CO1` [Example 306], in that order: 0.057 nM and 43.6 nM.
For `COC[C@@H]1CC[C@H]1NC(=O)N[S@@]1(=O)=NC(=O)c2ccc3c(c2)N(C[C@@H]2CC[C@H]2[C@@H](OC)/C=C/C[C@H](C)C1)C[C@@]1(CCCc2cc(Cl)ccc21)CO3` [Example 307], in that order: 0.12 nM and 96.8 nM.
`CO[C@H]1/C=C/C[C@H](C)C[S@@](=O)(NC(=O)c2cc(CN3CCOCC3)n(C)c2)=NC(=O)c2ccc3c(c2)N(C[C@@H]2CC[C@H]21)C[C@@]1(CCCc2cc(Cl)ccc21)CO3` [Example 308]: the IC50 in experiment [1] was found to be 0.031 nM. The EC50 in the experiment on SKBR3 cells (Homo sapiens, SK-BR-3, 72 h) worked out at 16.1 nM.
In the case of `CO[C@H]1/C=C/C[C@H](C)C[S@@](=O)(NC(=O)c2cc(CN3CCN(C4COC4)CC3)n(C)c2)=NC(=O)c2ccc3c(c2)N(C[C@@H]2CC[C@H]21)C[C@@]1(CCCc2cc(Cl)ccc21)CO3` [Example 309], the IC50 in experiment [1] is 0.029 nM. The EC50 in the experiment on SKBR3 cells (Homo sapiens, SK-BR-3, 72 h) stood at 10.5 nM.
For `CO[C@H]1/C=C/C[C@H](C)C[S@@](=O)(NC(=O)N[C@@H]2C[C@H]2C(F)F)=NC(=O)c2ccc3c(c2)N(C[C@@H]2CC[C@H]21)C[C@@]1(CCCc2cc(Cl)ccc21)CO3` [Example 310], in that order: 0.074 nM and 230 nM.
For `CO[C@H]1/C=C/C[C@H](C)C[S@@](=O)(NC(=O)N[C@H]2C[C@@H]2C(F)F)=NC(=O)c2ccc3c(c2)N(C[C@@H]2CC[C@H]21)C[C@@]1(CCCc2cc(Cl)ccc21)CO3` [Example 311], in that order: 0.024 nM and 13.4 nM.
For `CO[C@H]1/C=C/C[C@H](C)C[S@@](=O)(NC(=O)N[C@H]2C[C@@](C)(CO)C2)=NC(=O)c2ccc3c(c2)N(C[C@@H]2CC[C@H]21)C[C@@]1(CCCc2cc(Cl)ccc21)CO3` [Example 314], in that order: 0.054 nM and 32.9 nM.
Take `COC[C@@H]1C[C@@H]1NC(=O)N[S@@]1(=O)=NC(=O)c2ccc3c(c2)N(C[C@@H]2CC[C@H]2[C@@H](OC)/C=C/C[C@H](C)C1)C[C@@]1(CCCc2cc(Cl)ccc21)CO3` [Example 315]: in experiment [1], the IC50 worked out at 0.127 nM. For the same compound, the EC50 with SKBR3 cells (Homo sapiens, SK-BR-3, 72 h) was 164 nM.
With `COC[C@H]1C[C@H]1NC(=O)N[S@@]1(=O)=NC(=O)c2ccc3c(c2)N(C[C@@H]2CC[C@H]2[C@@H](OC)/C=C/C[C@H](C)C1)C[C@@]1(CCCc2cc(Cl)ccc21)CO3` [Example 316], in experiment [1], the IC50 is 0.056 nM. Also, the EC50 in the experiment on SKBR3 cells (72 hours) came out at 116 nM.
As for `CO[C@H]1/C=C/C[C@H](C)C[S@@](=O)(NC(=O)N[C@H]2C[C@H]2OC)=NC(=O)c2ccc3c(c2)N(C[C@@H]2CC[C@H]21)C[C@@]1(CCCc2cc(Cl)ccc21)CO3` [Example 317], the IC50 in experiment [1] is 0.034 nM. In addition, in the experiment with SKBR3 cells (Homo sapiens, SK-BR-3, 72 h), the EC50 turned out to be 48.5 nM.
The like results for `CO[C@H]1/C=C/C[C@H](C)C[S@@](=O)(NC(=O)N[C@@H]2C[C@@H]2OC)=NC(=O)c2ccc3c(c2)N(C[C@@H]2CC[C@H]21)C[C@@]1(CCCc2cc(Cl)ccc21)CO3` [Example 318] were, in that order, 0.066 nM and 74.4 nM.
For `CO[C@H]1/C=C/C[C@H](C)C[S@@](=O)(NC(=O)c2cn(C)nc2OCCN2CCOCC2)=NC(=O)c2ccc3c(c2)N(C[C@@H]2CC[C@H]21)C[C@@]1(CCCc2cc(Cl)ccc21)CO3` [Example 319], in that order: 0.038 nM and 19.9 nM.
The like results for `COC1CCN(C(=O)N[S@@]2(=O)=NC(=O)c3ccc4c(c3)N(C[C@@H]3CC[C@H]3[C@@H](OC)/C=C/C[C@H](C)C2)C[C@@]2(CCCc3cc(Cl)ccc32)CO4)CC1` [Example 320] were, in that order, 0.035 nM and 36.6 nM.
Turning to `C[C@H]1C/C=C/[C@H](O)[C@@H]2CC[C@H]2CN2C[C@@]3(CCCc4cc(Cl)ccc43)COc3ccc(cc32)C(=O)N=[S@](=O)(NC(=O)N[C@H]2C[C@@H]2C(F)F)C1` [Example 321], in experiment [1], the IC50 was determined as 0.037 nM. The EC50 in the experiment on SKBR3 cells (Homo sapiens, SK-BR-3, 72 h) is 47.1 nM.
With `CO[C@@H]1CC[C@@H](NC(=O)N[S@@]2(=O)=NC(=O)c3ccc4c(c3)N(C[C@@H]3CC[C@H]3[C@@H](OC)/C=C/C[C@H](C)C2)C[C@@]2(CCCc3cc(Cl)ccc32)CO4)C1` [Example 322], the IC50 in experiment [1] amounted to 0.057 nM. Further, the EC50 in the experiment on SKBR3 cells (Homo sapiens, SK-BR-3, 72 h) turned out to be 64.4 nM.
`CO[C@H]1/C=C/C[C@H](C)C[S@@](=O)(NC(=O)N2CC(F)(F)C2)=NC(=O)c2ccc3c(c2)N(C[C@@H]2CC[C@H]21)C[C@@]1(CCCc2cc(Cl)ccc21)CO3` [Example 323]: in experiment [1], the IC50 came out at 0.158 nM. For the same compound, the EC50 in the experiment on SKBR3 cells (Homo sapiens, SK-BR-3, 72 h) was determined as 170 nM.
For `CO[C@H]1/C=C/C[C@H](C)C[S@@](=O)(NC(=O)N2CC3(C2)CC3(F)F)=NC(=O)c2ccc3c(c2)N(C[C@@H]2CC[C@H]21)C[C@@]1(CCCc2cc(Cl)ccc21)CO3` [Example 324], in that order: 0.058 nM and 37.9 nM.
The like results for `COC[C@H]1Cn2cc(C(=O)N[S@@]3(=O)=NC(=O)c4ccc5c(c4)N(C[C@@H]4CC[C@H]4[C@@H](O)/C=C/C[C@H](C)C3)C[C@@]3(CCCc4cc(Cl)ccc43)CO5)cc2CO1` [Example 325] were, in that order, 0.1 nM and 50.3 nM.

The values are drawn from patent US10703733B2, “MCL-1 inhibitors” (Gilead Sciences, Inc., priority 2018, dated 2020).
